Consider 58 compounds from US11717549B2, “Steviol glycoside solubility enhancers” (CARGILL, INCORPORATED, priority 2017, dated 2023).

One series is described as follows: Equilibrium solubility: mixed with deionized water at 80° C. for 15 minutes, cooled to room temperature, observed at least four days. Type of series: physicochemical. To be noted: after heating to 80° C. for 15 minutes. An excerpt: (§1) The composition can optionally be expressed in terms of the concentration of one or more steviol glycoside(s). […] Clear solutions without precipitates are considered soluble. Unless indicated otherwise herein, the term “solubility” refers to “equilibrium solubility.”
`C=C1C[C@@]23CC[C@H]4[C@@](C)(CCC[C@@]4(C)C(=O)O[C@@H]4O[C@H](CO)[C@@H](O)[C@H](O)[C@H]4O[C@@H]4O[C@H](CO)[C@@H](O)[C@H](O)[C@H]4O)[C@@H]2CC[C@]1(O[C@@H]1O[C@H](CO)[C@@H](O)[C@H](O[C@@H]2O[C@H](CO)[C@@H](O)[C@H](O)[C@H]2O)[C@H]1O[C@@H]1O[C@H](CO)[C@@H](O)[C@H](O)[C@H]1O)C3` [Rebaudioside D, rebaudioside D] displayed an equilibrium solubility of 0.08%. The same measure, in the same setting: under `C=C1C[C@@]23CC[C@H]4[C@@](C)(CCC[C@@]4(C)C(=O)O[C@@H]4O[C@H](CO)[C@@H](O)[C@H](O[C@@H]5O[C@H](CO)[C@@H](O)[C@H](O)[C@H]5O)[C@H]4O[C@@H]4O[C@H](CO)[C@@H](O)[C@H](O)[C@H]4O)[C@@H]2CC[C@]1(O[C@@H]1O[C@H](CO)[C@@H](O)[C@H](O[C@@H]2O[C@H](CO)[C@@H](O)[C@H](O)[C@H]2O)[C@H]1O[C@@H]1O[C@H](CO)[C@@H](O)[C@H](O)[C@H]1O)C3` [Rebaudioside M, rebaudioside M] stands “about 0.2%”.

Another series can be described thus: Instantaneous solubility: vigorously mixed with water at room temperature (25° C.). To be noted: in water at room temperature, absence of compounds that enhance solubility. Format: physicochemical.
From the text: as §1
For the compound `C=C1C[C@@]23CC[C@H]4[C@@](C)(CCC[C@@]4(C)C(=O)O[C@@H]4O[C@H](CO)[C@@H](O)[C@H](O)[C@H]4O[C@@H]4O[C@H](CO)[C@@H](O)[C@H](O)[C@H]4O)[C@@H]2CC[C@]1(O[C@@H]1O[C@H](CO)[C@@H](O)[C@H](O[C@@H]2O[C@H](CO)[C@@H](O)[C@H](O)[C@H]2O)[C@H]1O[C@@H]1O[C@H](CO)[C@@H](O)[C@H](O)[C@H]1O)C3` [Rebaudioside D, rebaudioside D], the instantaneous solubility result is “less than 0.08%”. Consider `C=C1C[C@@]23CC[C@H]4[C@@](C)(CCC[C@@]4(C)C(=O)O[C@@H]4O[C@H](CO)[C@@H](O)[C@H](O[C@@H]5O[C@H](CO)[C@@H](O)[C@H](O)[C@H]5O)[C@H]4O[C@@H]4O[C@H](CO)[C@@H](O)[C@H](O)[C@H]4O)[C@@H]2CC[C@]1(O[C@@H]1O[C@H](CO)[C@@H](O)[C@H](O[C@@H]2O[C@H](CO)[C@@H](O)[C@H](O)[C@H]2O)[C@H]1O[C@@H]1O[C@H](CO)[C@@H](O)[C@H](O)[C@H]1O)C3` [Rebaudioside M, rebaudioside M], for which the instantaneous solubility entry is recorded as “about 0.13%”.

Test in a further series: not given
To be noted: in beverage formulations; cited from earlier work.
Regarding `C=C1C[C@@]23CC[C@H]4[C@@](C)(CCC[C@@]4(C)C(=O)O[C@@H]4O[C@H](CO)[C@@H](O)[C@H](O[C@@H]5O[C@H](CO)[C@@H](O)[C@H](O)[C@H]5O)[C@H]4O[C@@H]4O[C@H](CO)[C@@H](O)[C@H](O)[C@H]4O)[C@@H]2CC[C@]1(O[C@@H]1O[C@H](CO)[C@@H](O)[C@H](O[C@@H]2O[C@H](CO)[C@@H](O)[C@H](O)[C@H]2O)[C@H]1O[C@@H]1O[C@H](CO)[C@@H](O)[C@H](O)[C@H]1O)C3` [Rebaudioside M, rebaudioside M], the “aqueous solubility and dissolution qualities” value is “poor aqueous solubility”.

Test in a further series: not given
To be noted: temperature 0 ° C.; cited from earlier work.
For `O=C(O)C(=O)c1ccccc1` [alpha-oxobenzeneacetic acid], the “solubility (ppm)” value is given as 4.79E+05 ppm.

Staying with this series, now noted: temperature 9 ° C.; cited from earlier work.
Turning to `O=C(O)[C@]1(O)C[C@@H](O)[C@@H](O)[C@H](O)C1` [quinic acid (coffee beans), quinic acid], the “solubility (ppm)” value is given as 2.25E+05 ppm.

Staying with this series, now noted: temperature 13.5 ° C.; cited from earlier work.
For the compound `CC(C)(C(=O)O)C(C)(C)C(=O)O` [tetramethylbutanedioic acid], the “solubility (ppm)” value is reported as 4.78E+03 ppm.

Staying with this series, now noted: temperature 14 ° C.; cited from earlier work.
Consider `CCOc1ccc(NC(=O)C(O)C(O)C(=O)O)cc1` (stereo not shown) [ethonyphenyl tartramic acid], for which the “solubility (ppm)” value was 3.97E+03 ppm.

The same series, now with this note: temperature 14.9 ° C.; cited from earlier work.
Regarding `Nc1cccc(C(=O)O)c1` [aniline-3-carboxylic acid], the “solubility (ppm)” value is listed as 5.87E+03 ppm.

Staying with this series, now noted: temperature 15 ° C.; cited from earlier work.
Take `O=C(O)c1cc2c(cc1C(=O)O)OCO2` [hydrastic acid]: the “solubility (ppm)” value was 5.96E+03 ppm. Take `O=C(O)C(=O)c1ccccc1C(=O)O` [phthalonic acid]: the “solubility (ppm)” value was 3.49E+05 ppm.

The same series, now with this note: temperature 16 ° C.; cited from earlier work.
Take `CC(C)(C(=O)O)C(C)(CC(=O)O)C(=O)O` [L-camphoronic acid]: the “solubility (ppm)” value was 9.99E+04 ppm.

For the compound `O=C(O)c1cc(C(=O)O)c(C(=O)O)cc1C(=O)O` [pyromellitic acid], the “solubility (ppm)” value is 1.40E+04 ppm.

Staying with this series, now noted: temperature 17 ° C.; cited from earlier work.
In the case of `CC1=NN(c2ccc([N+](=O)[O-])cc2)C(=O)C1[N+](=O)[O-]` (stereo not shown) [picrolonic acid], the “solubility (ppm)” value was 8.92E+03 ppm.

Staying with this series, now noted: temperature 20 ° C.; cited from earlier work.
For the compound `C=CCC1(CC)C(=O)NC(=O)N(CCCC)C1=O` (stereo not shown) [5-allyl-5-ethylbutylbarbituric acid], the “solubility (ppm)” value is listed as 3.99E+03 ppm. Turning to `Cc1ccc([N+](=O)[O-])c(C(=O)O)c1` [6-nitro-3-methylbenzoic acid], the “solubility (ppm)” value is 4.68E+03 ppm.

As to `CCNC(=O)[C@@H](C)OC(=O)Nc1ccccc1` [D-(−)-carbanilic acid (1-ethylcarbamoyl)ethyl ester], the “solubility (ppm)” value is on record as 3.49E+03 ppm.

For `O=C(O)C(CO)c1ccccc1` (stereo not drawn) [alpha-(hydroxymethyl)benezeneacetic acid], the “solubility (ppm)” value was 1.91E+04 ppm. As for `Nc1ccccc1C(=O)O` [aniline-2-carboxylic acid], the “solubility (ppm)” value is 3.48E+03 ppm.

As to `O=C(O)CCc1ccccc1` [benzenepropanoic acid], the “solubility (ppm)” value was 5.87E+03 ppm. Consider `CC(C)C1C(=O)NC(=O)NC1=O` [isopropylbarbituric acid], for which the “solubility (ppm)” value is listed as 5.89E+03 ppm. In the case of `O=C(O)c1cccc(O)c1` [m-hydroxybenzoic acid], the “solubility (ppm)” value is reported as 8.45E+03 ppm.

The same series, now with this note: temperature 21 ° C.; cited from earlier work.
As for `CCNC(=O)COC(=O)c1ccccc1OC(C)=O` [benzoic acid, 2-(acetyloxy)-, 2-(ethylamino)-2-oxoethyl ester], the “solubility (ppm)” value is reported as 5.49E+03 ppm.

Regarding `CN(CCO)C(=O)COC(=O)c1ccccc1O` [benzoic acid, 2-hydroxy-, 2-[(2-hydroxyethyl)methylamino]-2-oxoethyl ester], the “solubility (ppm)” value is given as 6.26E+03 ppm. Turning to `O=C(O)CCCCCCCCCC(=O)O` [undecanedioic acid], the “solubility (ppm)” value was 5.07E+03 ppm.

The same series, now with this note: temperature 25 ° C.; cited from earlier work.
Take `CCC=C(C)CCC(=O)O` [4-methyl-4-heptenoic acid]: the “solubility (ppm)” value is 4.64E+03 ppm. On to `O=C(O)c1cc(=O)cc(C(=O)O)o1` [4-oxo-4H-pyran-2,6-dicarboxylic acid], for which the “solubility (ppm)” value is listed as 1.41E+04 ppm.

With `O=C1NC(=O)C2(CCC2)C(=O)N1` [5,5-trimethylenebarbituric acid], the “solubility (ppm)” value is 3.71E+03 ppm. Consider `C=CCC1(CC)C(=O)NC(=O)NC1=O` [5-allyl-5-ethylbarbituric acid], for which the “solubility (ppm)” value is 4.75E+03 ppm. For `O=C(O)c1cc(Cl)ccc1[N+](=O)[O-]` [5-chloro-2-nitrobenzoic acid], the “solubility (ppm)” value was 9.58E+03 ppm. As for `CCC(C)CC=CC(=O)O` (stereo not shown) [5-ethyl-2-hexenoic acid], the “solubility (ppm)” value was 6.06E+03 ppm. As for `CCCC1(CC)C(=O)NC(=O)NC1=O` [5-ethyl-5-n-propylbarbituric acid], the “solubility (ppm)” value is recorded as 5.66E+03 ppm. For the compound `CC=CCCCC(=O)O` [5-heptenoic acid], the “solubility (ppm)” value is on record as 6.79E+03 ppm. For the compound `CCC(C)CC=CC(=O)O` (stereo not shown) [5-methyl-2-heptenoic acid], the “solubility (ppm)” value is 4.64E+03 ppm. Regarding `CC(C)CC=CC(=O)O` [5-methyl-2-hexenoic acid], the “solubility (ppm)” value was 5.37E+03 ppm.

For the compound `CCC(C)C=CCC(=O)O` (stereo not shown) [5-methyl-3-heptenoic acid], the “solubility (ppm)” value is 4.64E+03 ppm. `CCC(C)=CCCC(=O)O` [5-methyl-4-heptenoic acid]: the “solubility (ppm)” value is recorded as 4.64E+03 ppm. As to `CC(C)CCCC(=O)O` [5-methylhexanoic acid], the “solubility (ppm)” value was 3.93E+03 ppm.

Regarding `C=CCCCCC(=O)O` [6-heptenoic acid], the “solubility (ppm)” value is on record as 5.55E+03 ppm. Regarding `CC(C)CC=CCC(=O)O` [6-methyl-3-heptenoic acid], the “solubility (ppm)” value is on record as 4.64E+03 ppm. For the compound `CC(C)C=CCCC(=O)O` [6-methyl-4-heptenoic acid], the “solubility (ppm)” value is 4.64E+03 ppm. With `CC(C)(CCCC(C)(C)C(=O)O)C(=O)O` [a,a,a′,a′-tetramethylheptanedioic acid], the “solubility (ppm)” value was 7.55E+03 ppm. As for `CC(=O)O[C@@H](C(=O)O)c1ccccc1` [acetyl-r-mandelic acid], the “solubility (ppm)” value was 1.11E+04 ppm.

Regarding `O=C(O)[C@@H](O)c1ccccc1` [alpha-hydroxybenzeneacetic acid, (S)], the “solubility (ppm)” value is reported as 9.26E+04 ppm.

Turning to `Nc1ccc(C(=O)O)cc1` [aniline-4-carboxylic acid], the “solubility (ppm)” value was 4.98E+03 ppm. As to `O=C(O[C@@H](C(=O)O)c1ccccc1)c1ccccc1` [benzoyl-r-mandelic acid], the “solubility (ppm)” value was 7.78E+03 ppm.

`O=C(O)c1cccc([N+](=O)[O-])c1` [m-nitrobenzoic acid]: the “solubility (ppm)” value is on record as 3.53E+03 ppm. `O=C(O)C(O)c1ccccc1` (stereo not shown) [mandelic acid (almonds), mandelic acid]: the “solubility (ppm)” value is reported as 1.53E+05 ppm. For the compound `O=C(O)c1ccccc1[N+](=O)[O-]` [o-nitrobenzoic acid], the “solubility (ppm)” value is 7.44E+03 ppm.

As to `CCCCCCCCC(C(=O)O)C(=O)O` [octylpropanedioic acid], the “solubility (ppm)” value is on record as 5.53E+03 ppm. As to `O=C(O)C(=O)Nc1ccccc1` [oxanilic acid], the “solubility (ppm)” value is recorded as 8.17E+03 ppm.

Take `O=C(O)c1ccc(O)cc1` [p-hydroxybenzoic acid]: the “solubility (ppm)” value is recorded as 6.36E+03 ppm. For `CCCOC(=O)OC(C)C(=O)OC` (stereo not shown) [propanoic acid, 2-[(propoxycarbonyl)oxy]-, methyl ester], the “solubility (ppm)” value is 5.15E+03 ppm. On to `CCC(=O)O[C@@H](C(=O)O)c1ccccc1` [propionyl-r-mandelic acid], for which the “solubility (ppm)” value is on record as 5.15E+03 ppm. Consider `CCCC/C=C/C(=O)O` [trans-2-heptenoic acid], for which the “solubility (ppm)” value was 5.37E+03 ppm.

Still in this series, the particulars now being: temperature 37 ° C.; cited from earlier work.
In the case of `CC(=O)N(CC(C)C(=O)O)c1c(I)cc(I)c(N)c1I` (stereo not shown) [iocetamic acid], the “solubility (ppm)” value is recorded as 5.26E+03 ppm.

As for `CCC(COCCOc1c(I)cc(I)c(NC(C)=O)c1I)C(=O)O` (stereo not shown) [iopronic acid], the “solubility (ppm)” value was 1.97E+04 ppm.

The same series, now with this note: temperature 100 ° C.; cited from earlier work.
Take `N[C@@H](CSCSC[C@H](N)C(=O)O)C(=O)O` [djenkolic acid]: the “solubility (ppm)” value was 4.98E+03 ppm.

The same series, now with this note: temperature not given; cited from earlier work.
With `Nc1ccc2cc(S(=O)(=O)O)cc(O)c2c1` [6-amino-4-hydroxy-2-naphthalenesulfonic acid], the “solubility (ppm)” value is reported as 4.48E+03 ppm.

A further series is described as follows: Observation for solubility / precipitation of acid and steviol glycoside samples in water (Example I). To be noted: 0.3% steviol glycoside; 5:1 and 2:1 molar ratio of pamoic acid to steviol glycoside; pH not adjusted.
For the compound pamoic acid, the “solubility of sample (conclusion)” value is “not initially soluble and remained insoluble at least after 1 day”.
